The test system of this test is Rhizoctonia solani. The test can be described thus: Growth inhibition of Rhizoctonia solani assessed as inhibition of fungal mycelia expansion at 1 mg after 2 days by agar plug assay. Format: functional, organism-based.

Activity calls are given as the source filed them. No cut-off for these calls is given here.

Regarding `OCC1=C[C@@H](N[C@H]2C[C@H](CO)[C@@H](O[C@H]3O[C@@H](CO)[C@H](O)[C@@H](O)[C@@H]3O)[C@H](O)[C@H]2O)[C@H](O)[C@@H](O)[C@@H]1O`, the result was Active.

(Values after ChEMBL document CHEMBL1155033, “Catalytic analysis of the validamycin glycosyltransferase (ValG) and enzymatic production of 4''-epi-validamycin A” (J Nat Prod, 2008).)
